Entries after “also recorded” stand apart in the source; their conditions may differ.
Key:
healthy subjects [1] = assay: Phase 1 crossover study: self-assessed injection site reactions; type: in vivo, human; conditions: 60 mg SQ elamipretide with or without the intervention, across all timepoints, all participants, n = 80
Method: (§1) • This Phase 1, open-label, 6-arm crossover study included 10 healthy subjects ≥18 and ≤65 years of age. • All subjects received 60 mg of SQ elamipretide to alternating quadrants of the abdomen on each of 6 occasions (FIG. 3), with or without the interventions listed in Table 2. • For each treatment arm, ISR clinical and self-assessments were performed pre-elamipretide administration and at 0.5, 1, 2, 4, 6, 12, 24, and 48 hours after each elamipretide dose. • Blood samples for plasma concentrations of elamipretide and its metabolites were also collected pre-dose and at 0.25, 0.5, 1, 2, 4, and 6 hours post-elamipretide dose. • Primary endpoints consisted of comparisons of the grading from the clinical assessments and the self-assessments of each ISR parameter following administration of elamipretide with each separate intervention versus that of elamipretide alone. • Secondary endpoints consisted of comparison of various pharmacokinetic (PK) parameters and adverse events following administration of elamipretide with each separate intervention versus that of elamipretide alone.
(§2) After the screening period (up to 28 days) in this phase 1, open-label, 4-week, 6-part, crossover study, all eligible subjects received 60 mg (0.75 mL) of SC elamipretide to alternating quadrants of the abdomen on each of 6 occasions, with or without potential ISR interventions. The first treatment arm (Arm 1) commenced on Day 1 with administration of elamipretide only, followed by the remaining treatment arms (Arms 2-6) with the following potential mitigations: mometasone furoate, 0.1% ointment, applied once under a hydrocolloid occlusive dressing (DuoDERM Extra Thin) 7 days prior to elamipretide administration (Arm 2); ice application at the elamipretide injection site 5 minutes pre- and post-drug administration (Arm 3); tacrolimus 0.1% ointment applied 15 minutes pre-drug dosing (Arm 4); doxepin 5% cream applied 15 minutes pre-elamipretide administration (Arm 5); and diphenhydramine 50 mg orally taken 2 hours prior to administration (Arm 6). For each treatment arm, blood samples for plasma concentrations of elamipretide and its metabolites were collected pre-dose and at 0.25, 0.5, 1, 2, 4, and 6 hours post-elamipretide dose. Vital signs were recorded pre-dose and at 0.5 and 6 hours post-elamipretide administration. ISR clinical and self-assessments were performed pre-elamipretide administration and at 0.5, 1, 2, 4, 6, 12, 24, and 48 hours after each elamipretide dose. Injection sites were photographed at 0.5, 1, 2, 4, and 12 hours post-elamipretide dose.
(§3) The primary endpoints of this study were comprised of the following efficacy measures: clinical assessments and subject self-assessments. Specifically, the primary endpoints consisted of comparisons of the grading of each ISR parameter following administration of elamipretide with each separate intervention versus the grading of each ISR parameter following administration of elamipretide alone. For clinical assessments, the clinical staff used a standard procedure adapted from the Division of Aids Table for Grading the Severity of Adult and Pediatric Adverse Events to score pain, erythema, induration, and pruritus using a 4-point scale based on severity (0=None, 1=Mild, 2=Moderate, 3=Severe, 4=Potentially Life Threatening). The self-assessments were based on a questionnaire to determine how bothered the patient was following each injection of elamipretide and included the following parameters: pain, burning sensation, cold sensation, itching, redness, swelling, and bruising.
(§4) All statistical analyses were performed using SAS GRID Linux/SAS Studio (Version 9.4, or higher). PK parameters for elamipretide and its metabolites, M1 and M2, were summarized using descriptive statistics.

healthy subjects [2] = assay: Phase 1 crossover study: safety (TEAEs, vital signs, ECG); type: in vivo, human; conditions: Arm 6, 50 mg orally 2 hours prior to 60 mg SQ elamipretide, 10 subjects
Method: The secondary endpoints of this study consisted of PK and safety assessments. After measuring absorption and distribution PK of elamipretide and its metabolites (M1 and M2), comparisons of each Tmax, Cmax, and AUC0-6 following administration of elamipretide with each separate intervention versus Tmax, Cmax, and AUC0-6 following administration of elamipretide alone were performed. Safety assessments consisted of comparison of treatment emergent adverse events (TEAEs) reported following administration of elamipretide with each separate intervention versus TEAEs reported following administration of elamipretide alone. Safety measurements included TEAEs, clinical laboratory tests (e.g., serum chemistry and hematology), 12-lead ECGs, physical exams, and vital signs.

healthy subjects [3] = assay: Phase 1 crossover study: clinically assessed injection site reactions; conditions: for Clinically assessed Erythema or redness, (%) of Reported Reactions / Clinically assessed Erythema or redness, Number of Reported Reactions / Clinically assessed Induration or swelling, (%) of Reported Reactions / Clinically assessed Induration or swelling, Number of Reported Reactions / Clinically assessed Pain or tenderness, (%) of Reported Reactions / Clinically assessed Pain or tenderness, Number of Reported Reactions / Clinically assessed Pruritis, (%) of Reported Reactions / Clinically assessed Pruritis, Number of Reported Reactions: 60 mg SQ elamipretide with or without the intervention, across all timepoints, all participants, n = 80; for Overall effect of the intervention on ISRs compared to elamipretide alone: clinical and self-assessments, 60 mg SQ elamipretide, vs Arm 1 (no intervention)
Method: as §1, §2, §3, §4

MRGPRX2 receptor = biological target: T1, MRGPRX2 receptor (Homo sapiens, UniProt Q96LB1); assay: Fluo-4 calcium assay in MRGPRX2 expressing Chem-1 cells; type: cell-based
T1 construct: host or cells: Chem-1 cells (G418-selected)
T1 sequence (Q96LB1 1-330): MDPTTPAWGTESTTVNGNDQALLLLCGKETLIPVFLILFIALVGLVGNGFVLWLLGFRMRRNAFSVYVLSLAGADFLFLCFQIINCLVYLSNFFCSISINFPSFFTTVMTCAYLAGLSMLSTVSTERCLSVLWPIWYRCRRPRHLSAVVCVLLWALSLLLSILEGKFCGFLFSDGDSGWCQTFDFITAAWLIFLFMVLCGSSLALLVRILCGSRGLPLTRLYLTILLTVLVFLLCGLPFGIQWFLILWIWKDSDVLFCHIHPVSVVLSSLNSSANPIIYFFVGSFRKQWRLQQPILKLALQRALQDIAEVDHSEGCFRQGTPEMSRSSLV

[4] = clinical assessment, vs elamipretide alone

SMILES | Self-assessed Bruising, (%) of Reported Reactions (healthy subjects [1]) | Self-assessed Bruising, Number of Reported Reactions (healthy subjects [1]) | Self-assessed Burning sensation, (%) of Reported Reactions (healthy subjects [1]) | Self-assessed Burning sensation, Number of Reported Reactions (healthy subjects [1]) | Self-assessed Cold Sensation, Number of Reported Reactions (healthy subjects [1]) | Self-assessed Itching, (%) of Reported Reactions (healthy subjects [1]) | Self-assessed Itching, Number of Reported Reactions (healthy subjects [1]) | Self-assessed Pain, (%) of Reported Reactions (healthy subjects [1]) | Self-assessed Pain, Number of Reported Reactions (healthy subjects [1]) | Self-assessed Redness, (%) of Reported Reactions (healthy subjects [1]) | Self-assessed Redness, Number of Reported Reactions (healthy subjects [1]) | Self-assessed Swelling, (%) of Reported Reactions (healthy subjects [1]) | Self-assessed Swelling, Number of Reported Reactions (healthy subjects [1]) | Clinically assessed Erythema or redness, (%) of Reported Reactions (healthy subjects [3]) | Clinically assessed Erythema or redness, Number of Reported Reactions (healthy subjects [3]) | Clinically assessed Induration or swelling, (%) of Reported Reactions (healthy subjects [3]) | Clinically assessed Induration or swelling, Number of Reported Reactions (healthy subjects [3]) | Clinically assessed Pain or tenderness, (%) of Reported Reactions (healthy subjects [3]) | Clinically assessed Pain or tenderness, Number of Reported Reactions (healthy subjects [3]) | Clinically assessed Pruritis, (%) of Reported Reactions (healthy subjects [3]) | also measured
CN(C)CCOC(c1ccccc1)c1ccccc1 [Diphenhydramine] | (1.3) % | 1 | (1.3) % | 1 | 0.0 | (11.3) % | 9 | (2.5) % | 2 | (25.0) % | 20 | (6.3) % | 5 | (26.3) % | 21 | (6.3) % | 5 | (2.5) % | 2 | (10.0) % | mild somnolence, incidence (healthy subjects [2]): 50%; mild somnolence, number of subjects (healthy subjects [2]): 5 subjects; Clinically assessed Pruritis, Number of Reported Reactions (healthy subjects [3]): 8; Overall effect of the intervention on ISRs compared to elamipretide alone (healthy subjects [3]): most reduced; also recorded: potential in reducing induration; also recorded: Improvement; incidence of induration at 0.5 hours post-elamipretide dose (healthy subjects [3]; [4]): trend to significance in reduction; incidence of induration at 1 hour post-elamipretide dose (healthy subjects [3]; [4]): significantly decreased incidence
CN(C)CCC=C1c2ccccc2COc2ccccc21 [Doxepin] | (0.0) % | 0 | (7.5) % | 6 | 0.0 | (12.5) % | 10 | (8.8) % | 7 | (35.0) % | 28 | (21.3) % | 17 | (27.5) % | 22 | (21.3) % | 17 | (12.5) % | 10 | (12.5) % | Clinically assessed Pruritis, Number of Reported Reactions (healthy subjects [3]): 10; Overall effect of the intervention on ISRs compared to elamipretide alone (healthy subjects [3]): little impact
C[C@@H]1C[C@H]2[C@@H]3CCC4=CC(=O)C=C[C@]4(C)[C@@]3(Cl)[C@@H](O)C[C@]2(C)[C@@]1(OC(=O)c1ccco1)C(=O)CCl [Mometasone furoate] | (1.3) % | 1 | (8.8) % | 7 | 0.0 | (6.3) % | 5 | (8.8) % | 7 | (41.3) % | 33 | (11.3) % | 9 | (37.5) % | 30 | (10.0) % | 8 | (8.8) % | 7 | (2.5) % | Clinically assessed Pruritis, Number of Reported Reactions (healthy subjects [3]): 2; Overall effect of the intervention on ISRs compared to elamipretide alone (healthy subjects [3]): most reduced; also recorded: favorably mitigate; Overall effect of the intervention on ISRs compared to elamipretide alone (healthy subjects [3]; listed as mometasone furoate ointment): Improvement; incidence of induration at 0.5 hours post-elamipretide dose (healthy subjects [3]; [4]): significantly reduced incidence; incidence of induration at 1 hour post-elamipretide dose (healthy subjects [3]; [4]): Trends to significance in reduction; pruritus at 0.5 hours post-dose (healthy subjects [3]; [4]): Trends to significance in reduction
C=CC[C@@H]1/C=C(\C)C[C@H](C)C[C@H](OC)[C@H]2O[C@@](O)(C(=O)C(=O)N3CCCC[C@H]3C(=O)O[C@H](/C(C)=C/[C@@H]3CC[C@@H](O)[C@H](OC)C3)[C@H](C)[C@@H](O)CC1=O)[C@H](C)C[C@@H]2OC [Tacrolimus] | (10.0) % | 8 | (1.3) % | 1 | 0.0 | (15.0) % | 12 | (3.8) % | 3 | (25.0) % | 20 | (18.8) % | 15 | (31.3) % | 25 | (22.5) % | 18 | (3.8) % | 3 | (15.0) % | Clinically assessed Pruritis, Number of Reported Reactions (healthy subjects [3]): 12; Overall effect of the intervention on ISRs compared to elamipretide alone (healthy subjects [3]): little impact; Overall effect of the intervention on ISRs compared to elamipretide alone (healthy subjects [3]; listed as tacrolimus): most reduced; Overall effect of the intervention on ISRs compared to elamipretide alone (healthy subjects [3]; listed as tacrolimus ointment): Improvement
CCNC(=O)[C@@H]1CCCN1C(=O)[C@H](CCCNC(=N)N)NC(=O)[C@H](CC(C)C)NC(=O)[C@@H](CC(C)C)NC(=O)[C@H](Cc1ccc(O)cc1)NC(=O)[C@H](CO)NC(=O)[C@H](Cc1c[nH]c2ccccc12)NC(=O)[C@H](Cc1c[nH]cn1)NC(=O)[C@@H]1CCC(=O)N1 [leuprolide] | – | – | – | – | – | – | – | – | – | – | – | – | – | – | – | – | – | – | – | – | activation of the MRGPRX2 expressing cells (calcium mobilization) (MRGPRX2 receptor; Chem-1 cells, Fluo-4): dose dependent activation
O=c1c(O)c(-c2ccc(O)c(O)c2)oc2cc(O)cc(O)c12 [quercetin, 3,3′,4′,5,7-pentahydroxyflavone] | – | – | – | – | – | – | – | – | – | – | – | – | – | – | – | – | – | – | – | – | inhibition of the activation of the MRGPRX2 receptor caused by elamipretide (MRGPRX2 receptor; 100 μM of elamipretide, various concentrations of quercetin): in a dose-dependent manner, inhibit the activation; also recorded: inhibits activation of MRGPRX2
